Experimental data as given in article PMC10689823, “Discovery of a Drug-like, Natural Product-Inspired DCAF11 Ligand Chemotype” (Nature Communications, 2023).
Values belong to the compound of their own block, whether it stands above or below them.

Legend:
[1] = target: T1, DCAF11 (Homo sapiens, UniProt Q8TEB1); assay: In-gel fluorescence labelling of purified DCAF11; assay type: binding; details: purified DCAF11 pretreated with compound 2 for 40 min, then 18 for 40 min
Experimental: Purified DCAF11 protein (1 μg, Origene, TP760719) was diluted in PBS buffer that is mixed with compound 2 or BODIPY derivative 18 at the indicated concentration at room temperature. Samples were diluted with 5 × SDS sample loading buffer and heated at 95 °C for 5 min. Proteins were separated using SDS-PAGE and were visualized using the ChemiDoc MP Imaging System (BIO-RAD) at 488 nm and the results were analyzed by Image Lab (BIORAD).

[2] = target: T1, DCAF11; assay: Affinity-based enrichment (biotin-streptavidin pulldown) in Hep G2 cells overexpressing HA-DCAF11; assay type: binding; design: host or cells: Hep G2; details: 100 μM compound 2 pretreatment for 1 h
Experimental: Hep G2 cells (1 × 10^6 cells/well) were seeded in 6-well plates and incubated for 24 h. On the next day, the cells were transfected with 1 µg pCMV3-N-HA-DCAF11 plasmid (Sino Biological, HG16257-NY) or 1 µg empty vector (pcDNA3.1(+), Thermo Fisher, V79020) and 2.5 µL FuGENE® HD transfection reagent (Promega, E2311) per well. The cells were incubated for 48 h prior to treatment with 100 μM compound 2 for 1 h. […] The cells were washed with ice-cold PBS, then lysed in lysis buffer (150 mM sodium chloride, 1% NP-40, 50 mM TRIS-HCl, pH 8.0 with complete protease inhibitor cocktail (Roche, 11836170001)) for 30 min on ice. After centrifugation at 16,000 x g, the supernatant was transferred into a new tube and the protein concentration was determined using the DC protein assay (BIO-RAD, 5000116).
The supernatant was discarded and 1 mg of lysate in 500 µL lysis buffer was added to the beads and incubated for 1 h at room temperature with overhead rotation. The beads were washed twice with 500 µL washing buffer (50 mM PIPES (pH 7.4), 50 mM NaCl, 75 mM MgCl2, 5 mM EGTA, 0.1% NP-40, 0.1% Triton X-100, 0.1% Tween20) and twice with PBS for 10 min each at room temperature with overhead rotation. Enriched proteins were eluted by boiling of the beads at 95 °C for 5 min in 20 µL of a supersaturated (25 mM) biotin solution and visualized by Western Blotting as described above.

[3] = test system: Hep G2 cells; assay: Cell viability assay (CellTiter-Glo) in Hep G2 cells; assay type: cell-based; details: Homo sapiens, HepG2, 72 h
Experimental: Jurkat cells (3 × 10^3) and Hep G2 cells (3.5 × 10^3) were seeded in 96-well plates in 100 μL culture medium. Cells were treated with compounds dissolved in 50 μl medium at the indicated concentration for 72 h, at the same time, one plate of cells without compounds treatment was used for the cell count at time zero. After adding 40 μl of CellTiter-Glo® reagent (Promega, G7571) to each well for 10 min at room temperature, the luminescence was measured on a Spark® Multimode Microplate Reader (Tecan). The data was analyzed by the GraphPad Prism 9.0.

[4] = target: PDEδ (Homo sapiens, UniProt O43924); assay: PDEδ levels by Western blot in Jurkat cells; assay type: cell-based; design: endogenous in cells; host or cells: Jurkat; details: 10 μM, 6 h
[5] = target: T2, BRD2 and DCAF11 (Homo sapiens, UniProt P25440+Q8TEB1); assay: Co-immunoprecipitation of FLAG-BRD2 and HA-DCAF11 in Hep G2 cells; assay type: cell-based; details: MG-132 10 μM, 40 min, compound 10 μM
T2 construct: expressed in transfected cells; host or cells: Hep G2
Experimental: Hep G2 cells were seeded in 6-well plates, 24 h later, cells were transiently transfected with HA-DCAF11 (Sino Biological, HG16257-NY) and FLAG-BRD2 for 48 h using the FuGENE® HD transfection reagent (Promega, E2311). […] After determination of the protein concentration, cell lysates were incubated with anti-FLAG magnetic beads (30 μl / sample, Sigma, M8823) at 4 °C for 4 h and washed three times with washing buffer (0.2% NP-40, 25 mM Tris-HCl pH 7.4, 150 mM NaCl). The beads were diluted with PBS, mixed with SDS sample buffer and heated at 95 °C for 10 min, followed by western blot analysis.

[6] = target: BRD2 (Homo sapiens, UniProt P25440); assay: BRD2 levels by Western blot in Hep G2 and MDA-MB-231 cells (incl. RNA interference); assay type: cell-based; design: endogenous in cells; host or cells: Hep G2; MDA-MB-231
Experimental: Cells were washed with PBS and lysed in lysis buffer (50 mM Tris-HCl, pH 7.4, 150 mM NaCl, 1% Triton X-100, 1% sodium deoxycholate, 0.1% SDS) with complete protease inhibitor cocktail (Roche, 11836170001) for 30 min on ice. For Ramos cells, cell pellets were lysed in lysis buffer (50 mM Tris-HCl, pH 8, 150 mM NaCl, 1% NP-40, 0.5% sodium deoxycholate) with complete protease inhibitor cocktail. After centrifugation at 16,000 x g, the supernatant was transferred into a new tube and the protein concentration was determined by DC protein assay (BIO-RAD, 5000116). Proteins were separated by SDS-PAGE and transferred to a PVDF membrane (Thermo scientific, 0.45 μm, 88518). For PDEδ, BRD2, GAPDH, BRD4, Vinculin and BTK, the membranes were blocked with Intercept® Blocking Buffer (LI-COR Biosciences, 927-70001) at room temperature for 1 h. The primary antibodies for these proteins were diluted with Intercept® Blocking Buffer (1:500 for PDEδ, 1:3000 for Vinculin, and 1:1000 for other proteins) and incubated with the membranes overnight at 4 °C. Membranes were washed with PBS + 0.1% Tween 20 (PBS-T) five times and incubated with secondary antibodies conjugated to IRDye® Infrared Fluorescent Dyes (1:5000, LI-COR Biosciences) at room temperature for 1 h with protection from light. After washing the membrane, signals were visualized using the ChemiDoc MP Imaging System (BIO-RAD Laboratories). For detection of LC3B, BRD3, BLK, DCAF11, DDB1 RBX1, FIP200, V5- and FLAG-Tag the membranes were blocked with 5% milk in PBS-T at room temperature for 1 h. The primary antibodies for these proteins were diluted in 5% milk in PBS-T buffer (1:200 for BRD3, 1:1000 for other proteins) and incubated with the membranes overnight at 4 °C. Membranes were washed with PBS-T five times and incubated with HRP secondary antibodies (1:1500) at room temperature for 1 h. After washing the membrane, protein detection was performed using Western blotting detection reagent (Thermo Scientific, 34095) and the ChemiDoc MP Imaging System (BIO-RAD). Relative band intensities were quantified using Image Lab (BIO-RAD).

SMILES: O=C1Nc2ccc(Br)cc2C1=Cc1cc(Br)c(O)c(Br)c1 [Compound 2]
competition of DCAF11 labelling by 18 [1]: binding is prevented | competition of DCAF11 enrichment by probe 14 [2]: reduced the enrichment | GI50 [3]: > 30 µM | PDEδ protein levels, ligands alone or in combination [4]: did not reduce PDEδ protein levels

BRD2 depletion in Hep G2 and MDA-MB-231 cells ([6]; 4 h): BRD2 depletion was also observed
SMILES: Cc1sc2c(c1C)C(c1ccc(Cl)cc1)=N[C@@H](CC(=O)NCCOCCOCCOCCOCCNC(=O)COc1c(Br)cc(/C=C3\C(=O)Nc4ccc(Br)cc43)cc1Br)c1nnc(C)n1-2 [Compound 9]
complex formation between BRD2 and DCAF11 (co-immunoprecipitation) [5]: mediates complex formation between BRD2 and DCAF11 | BRD2 degradation after siRNA-mediated depletion of RBX1 ([6]; MDA-MB-231 cells, RBX1 siRNA 30 nM, 48 h, 3 μM compound 9, 4 h): did not induce degradation of BRD2 anymore
